# Experimental data published in patent US20100004235A1, “Heterocyclic Substituted, Anellated Pyrazole Derivative and its uses” (BAYER HEALTHCARE AG, priority 2006, published 2010).
# pIC50: −log10 of the molar value.
# Test system: rabbit aorta rings
# Test: Vasorelaxant effect in vitro (rabbit aorta rings, phenylephrine-induced contraction)
# Details: Oryctolagus cuniculus; concentration reducing the height of the phenylephrine-induced contraction of rabbit aorta rings by 50%; 0.1% DMSO
# Description: Rabbits are stunned by a blow to the neck and exsanguinated. The aorta is removed, freed from adhering tissue and divided into rings of a width of 1.5 mm. The rings are placed individually under an initial tension in 5 ml organ baths with Krebs-Henseleit solution which is at 37° C., is gassed with carbogen and has the following composition (in each case mM): NaCl: 119; KCl: 4.8; CaCl2×2H2O: 1; MgSO4×7H2O: 1.4; KH2PO4: 1.2; NaHCO3: 25; glucose: 10. The force of contraction is detected with Statham UC2 cells, amplified and digitized via A/D converters (DAS-1802 HC, Keithley Instruments, Munich) and recorded in parallel on chart recorders. Contractions are induced by cumulatively adding increasing concentrations of phenylephrine to the bath. After several control cycles, the substance to be investigated is added in each further run in increasing dosage, and the height of the contraction achieved is compared with the height of the contraction reached in the last preceding one. The concentration necessary to reduce the height of the control value by 50% is calculated from this (IC50 value). The standard application volume is 5 μl, the proportion of DMSO in the bath solution corresponds to 0.1%.
row,Structure (SMILES),pIC50
1,"O=c1[nH]c(-c2nn(Cc3ccccc3F)c3ncccc23)no1 [Example 1, 3-[1-(2-Fluorobenzyl)-1H-pyrazolo[3,4-b]pyridin-3-yl]-1,2,4-oxadiazol-5(4H)-one]",5.68
2,"CC(=O)OCCn1nc(-c2nn(Cc3ccccc3F)c3ncccc23)[nH]c1=O [Example 19, 2-{3-[1-(2-Fluorobenzyl)-1H-pyrazolo[3,4-b]pyridin-3-yl]-5-oxo-4,5-dihydro-1H-1,2,4-triazol-1-yl}ethyl acetate]",5.68
3,"O=c1[nH]c(-c2nn(Cc3ccccc3F)c3ncccc23)nn1CC(F)(F)F [Example 18, 5-[1-(2-Fluorobenzyl)-1H-pyrazolo[3,4-b]pyridin-3-yl]-2-(2,2,2-trifluoroethyl)-2,4-dihydro-3H-1,2,4-triazol-3-one]",6.21
4,"Fc1ccccc1Cn1nc(-c2noc(=S)[nH]2)c2cccnc21 [Example 7, 3-[1-(2-Fluorobenzyl)-1H-pyrazolo[3,4-b]pyridin-3-yl]-1,2,4-oxadiazole-5(4H)-thione]",5.96

# Second part, the compound after the results:
row,pIC50,Structure (SMILES)
1,6.21,"O=c1[nH]nc(-c2nn(Cc3ccccc3F)c3ncccc23)o1 [Example 3, 5-[1-(2-Fluorobenzyl)-1H-pyrazolo[3,4-b]pyridin-3-yl]-1,3,4-oxadiazol-2(3H)-one]"
2,6.35,"O=c1[nH]c(-c2nn(Cc3ccccc3F)c3ncccc23)ns1 [Example 2, 3-[1-(2-Fluorobenzyl)-1H-pyrazolo[3,4-b]pyridin-3-yl]-1,2,4-thiadiazol-5(4H)-one]"

# Test system: vessel
# Test: not given
# Details: literature report; cited from earlier work
row,Structure (SMILES),vessel-relaxing effect
1,"Fc1ccccc1Cn1nc(-c2nnn[nH]2)c2cccnc21 [1-(2-fluorobenzyl)-3-(1H-tetrazol-5-yl)-1H-pyrazolo[3,4-b]pyridine]",moderate
